These results are taken from patent US9480750B2, “Preparation of antibody or an antibody fragment targeted immunoliposomes for systemic administration of therapeutic or diagnostic agents and uses thereof” (GEORGETOWN UNIVERSITY, priority 1999, dated 2016).

Where a name gives a salt, the structure may show the parent alone. Read-outs that look alike come from different tables or passages of the source.

Data set [1] concerns MDA-MB-435 human melanoma cells. Nature of the data set: In vitro chemosensitization, XTT. The data set is classed as cell-based. For orientation: Formazan colour is commonly taken as a measure of viable cells.
Another data set relates to advanced NSCLC. The conditions noted are these: previously-treated advanced NSCLC; cited from earlier work.
For data set [2] the following is noted: administered orally; cited from earlier work.
The subject of data set [3] is DU145 human prostate cancer cells. Nature of the data set: In vitro chemosensitization, XTT. The format is cell-based.
Data set [4] relates to normal skin fibroblast cell line H500.
The conditions of data set [5]: cited from earlier work.
For data set [6] the following is noted: TARCEVA plus gemcitabine; cited from earlier work.
The test system of data set [7] is normal human lung fibroblasts IMR-90. Nature of the data set: In vitro chemosensitization of normal cells, XTT. Conditions: 2.5 uM Sunitinib malate, FIG. 43A-C. The format is cell-based. As to the method:
The above sensitization results with B16/F10 and MDA-MB-435 were dramatically different from the results with normal human lung fibroblasts IMR-90 under the same conditions. […] The ratio of single-chain antibody fragment to liposome in each complex was 1:30 (w:w). […] After 48 hours, XTT assays were performed to assess cell viability in response to treatments. Each point represents the mean of triplicate samples±standard deviation. […] UT=untransfected.

In data set [8] the test system is Panc I subcutaneous xenograft tumors. Nature of the data set: In vivo chemosensitization of pancreatic xenograft. Details: species or system mice. The conditions noted are these: GEMZAR alone, intraperitoneally. As to the method:
To show the universality of this delivery system two different human xenograft mouse tumor models (pancreatic cancer and breast cancer) were employed. In the first (FIG. 10A) Panc I subcutaneous xenograft tumors were induced in female athymic nude (NCR nu/nu) mice. When the tumors were 100-200 mm^3 in size the animals were injected with the chemotherapeutic agent GEMZAR® (intraperitoneally) and with […]-2 prepared by the method of this invention (I.V.). […] In addition to the I.V. injections the complex described above also was intratumorally injected. One group of animals received GEMZAR® only and a second control group received GEMZAR® plus the complex carrying empty vector.

A further data set has as its system cleaved caspase-3. Nature of the data set: Western blot of cleaved caspase-3 from mice serum. The format is in vivo, C57BL/6 mice. The conditions noted are these: CDDP alone. The procedure: The blood collected from the retroorbital sinus of mice was centrifuged at 1,000 rpm for 10 minutes at room temperature after coagulation at room temperature for 1 hr. The serum was transferred to a new tube and centrifuged again at 10,000 g for 20 minutes. The supernatant serum was purified using a P-30 Micro-Bio-Spin Chromatography Column (BIORAD, Hercules, Calif.). Fifteen microliters of the fractions was loaded on a 4% to 12% gradient NuPAGE gel (Invitrogen Life Technologies, Carlsbad, Calif.) and run until the 10 kDa protein marker has run off the gel (approximately 1.5 to 2 hours). After electrophoresis, the proteins were transferred onto a Protran BA 85 nitrocellulose transfer membrane (Schleicher and Schuell, BioScience, Keene, N. H.). Finally, a Western blot analysis for cleaved caspase-3 was performed with cleaved caspase-3 (17 kD) antibody. To block nonspecific binding, the membrane was incubated at room temperature for 1 hour with 5% nonfat dry milk in 10 mM Tris-HCl buffer, pH 8.0, containing 150 mM NaCl and 0.05% Tween 20 (TBST). […] The protein was detected using goat antirabbit secondary antibody (Jackson ImmunoResearch Laboratories, West Grove, Pa.), ECL Western blotting detection reagent, and Hyperfilm ECL (Amersham, Piscataway, N.J.).

As to `COc1cc2ncnc(Nc3ccc(F)c(Cl)c3)c2cc1OCCCN1CCOCC1` [Geftinib, Gefitinib], the “sensitization to TAXOTERE” value in data set [1] (free Geftinib, 15 µM) was “did not sensitize the cells at all”. For the same compound, the “patients achieving tumor shrinkage or stabilization of their tumor” value with advanced NSCLC is recorded as “Approximately 50%”. In addition, the half-lives in data set [2] was ~46 h.

In the case of `C#Cc1cccc(Nc2ncnc3cc(OCCOC)c(OCCOC)cc23)c1` [Erlotinib, N-(3-ethynylphenyl)-6,7-bis(2-methoxyethoxy)-4-quinazolinamine], in [1] (free Erlotinib), the “sensitization to TAXOTERE” value is given as “only minimal effect”. The “sensitization to Mitoxantrone” value in data set [3] (3.75 uM Erlotinib) is “does not sensitize the cells to Mitoxantrone”. Moreover, the “sensitization to Mitoxantrone” value in data set [3] (7.5 uM Erlotinib) is listed as “had no effect on the response to the chemotherapeutic agent”. Moreover, the “sensitization to Mitoxantrone, TAXOTERE or Gemcitabine” value in data set [4] (7.5 uM Erlotinib, FIG. 36A-C) is “no significant increase in sensitization”. Also, in data set [5] (NSCLC single-agent trial), the “incidence of ILD-like events” value is reported as 0.8%. Also, in [5] (monotherapy 150 mg, NSCLC), the “Grade 3/4 diarrhea” value is 6%; the “Grade 3/4 rash” value is on record as 9%; the “patients discontinuing due to rash or diarrhea, each” value is given as 1%. Further, in [6], the Diarrhea was 48%; the Rash is on record as 69%; the “dose reductions due to rash and diarrhea, each” value is listed as “two percent”; the “study discontinuation due to rash and diarrhea” value was “up to one percent”. Further, the half-lives in [2] was ~36 h.

With `CCN(CC)CCNC(=O)c1c(C)[nH]c(/C=C2\C(=O)Nc3ccc(F)cc32)c1C` [Sunitinib malate], the “sensitization to Mitoxantrone, TAXOTERE or Gemcitabine” value is reported as “no significant increase in sensitization” in data set [7] and “no significant increase in sensitization” in [4] (2.5 or 5 uM Sunitinib malate, FIG. 42A-C). Moreover, in data set [3] (5 μM free Sunitinib malate), the “sensitization to Mitoxantrone” value is recorded as “only minimal effect on sensitization”.

`Nc1ccn([C@@H]2O[C@H](CO)[C@@H](O)C2(F)F)c(=O)n1` [GEMZAR®, gemcitabine HCl]: the tumor growth result in data set [8] is listed as “not able to significantly inhibit pancreatic tumor growth”.

Regarding `[NH2][Pt]([NH2])([Cl])[Cl]` [CDDP, cisplatin], the “cleaved caspase-3 in serum” value in the data set on cleaved caspase-3 is “only a weak band”.

With `Cc1ccc(NC(=O)c2ccc(CN3CCN(C)CC3)cc2)cc1Nc1nccc(-c2cccnc2)n1` [Imatinib Mesylate], the “sensitization to TAXOTERE” value in data set [1] (20 uM Imatinib Mesylate) is given as “does not sensitize the cells”.
